US7790742B2, “Substituted 4-phenyltetrahydroisoquinolines, pharmaceutical compositions thereof, methods for their preparation and therapeutic use” (Sanofi-Aventis Deutschland GmbH, priority 2004, dated 2010)
pIC50: −log10 of the molar value.

target: T1, NHE3 (Homo sapiens, UniProt P48764); assay: Determination of the NHE-inhibitory effect (recovery of intracellular pH after acidification, BCECF); assay type: cell-based; details: BCECF fluorescence, NHE subtype not given
T1 construct: host or cells: cells, not specified
T1 sequence (P48764 26-834): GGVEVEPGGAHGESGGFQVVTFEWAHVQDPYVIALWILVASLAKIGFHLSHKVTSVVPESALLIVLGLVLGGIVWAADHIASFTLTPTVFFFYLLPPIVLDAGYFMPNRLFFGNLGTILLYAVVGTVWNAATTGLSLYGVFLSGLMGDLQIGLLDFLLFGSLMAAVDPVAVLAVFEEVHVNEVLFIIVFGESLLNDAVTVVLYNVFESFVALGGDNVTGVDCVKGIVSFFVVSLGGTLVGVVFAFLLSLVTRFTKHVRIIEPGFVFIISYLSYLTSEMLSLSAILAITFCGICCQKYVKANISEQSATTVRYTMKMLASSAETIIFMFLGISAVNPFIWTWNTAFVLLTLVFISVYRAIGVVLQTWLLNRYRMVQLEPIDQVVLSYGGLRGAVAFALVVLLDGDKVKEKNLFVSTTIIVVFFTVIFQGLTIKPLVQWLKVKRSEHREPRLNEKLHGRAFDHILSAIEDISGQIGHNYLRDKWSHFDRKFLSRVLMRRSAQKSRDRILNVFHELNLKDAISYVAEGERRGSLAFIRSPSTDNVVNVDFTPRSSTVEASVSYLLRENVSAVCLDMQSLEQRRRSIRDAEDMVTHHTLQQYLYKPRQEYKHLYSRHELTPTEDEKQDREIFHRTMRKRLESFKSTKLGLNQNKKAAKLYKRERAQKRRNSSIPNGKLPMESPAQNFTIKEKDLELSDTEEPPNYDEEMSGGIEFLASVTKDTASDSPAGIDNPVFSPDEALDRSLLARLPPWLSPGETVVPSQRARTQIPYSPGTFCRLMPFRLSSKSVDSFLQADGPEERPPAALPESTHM
Description: [drawing 82] was obtained in analogy to the method indicated in Example 16 from 6,8-dichloro-2-methyl-4(R)-[2N-(2-ethoxy-3,4-dioxocyclobuten-1-yl)amino]-phenyl-1,2,3,4-tetrahydroisoquinoline (Example 6) and methylamine. Crystalline solid, m.p. 265° C. Pharmacological Data: Assay: Determination of the NHE-Inhibitory Effect
In this assay, the recovery of the intracellular pH (pHj) after an acidification which occurs even under bicarbonate-free conditions with functional NHE was determined. To this end, the pHj was determined using the pH-sensitive fluorescent dye BCECF (calbiochem, the precursor BCECF-AM was employed). The cells were initially loaded with BCECF. The BCECF fluorescence was determined in a ratio fluorescence spectrometer (Photon Technology International, South Brunswick, N.J., USA) with excitation wavelengths of 505 and 440 nm and an emission wavelength of 535 nm and converted into the pHj using calibration plots. The cells had been incubated in NH4Cl buffer (pH 7.4) for the BCECF loading (NH4Cl buffer: 115 mM NaCl, 20 mM NH4Cl, 5 mM KCl, 1 mM CaCl2, 1 mM MgSO4, 20 mM Hepes, 5 mM glucose, 1 mg/ml BSA; a pH of 7.4 was adjusted with 1 M NaOH). The intracellular acidification was induced by adding 975 μl of an NH4Cl-free buffer (see below) to 25 μl aliquots of the cells incubated in NH4Cl buffer. The subsequent rate of pH recovery was recorded for two minutes with NHE1, five minutes with NHE2 and three minutes with NHE3. To calculate the inhibitory power of the tested substances, the cells were initially investigated in buffers with which there was complete or absolutely no pH recovery. For complete pH recovery (100%), the cells were incubated in Na^+-containing buffer (133.8 mM NaCl, 4.7 mM KCl, 1.25 mM CaCl2, 1.25 mM MgCl2, 0.97 mM Na2HPO4, 0.23 mM NaH2PO4, 5 mM Hepes, 5 mM glucose, a pH of 7.0 was adjusted with 1 M NaOH). To determine the 0% value, the cells were incubated in an Na^+-free buffer (133.8 mM choline chloride, 4.7 mM KCl, 1.25 mM CaCl2, 1.25 mM MgCl2, 0.97 mM K2HPO4, 0.23 mM KH2PO4, 5 mM Hepes, 5 mM glucose, a pH of 7.0 was adjusted with 1 M NaOH). The substances to be tested were made up in the Na^+-containing buffer. The recovery of the intracellular pH at each tested concentration of a substance was expressed as a percentage of the maximum recovery. The IC50 of the respective substance for the individual NHE subtypes was calculated from the percentages of pH recovery using the Sigma Plot program.

| pIC50 | SMILES |
| --- | --- |
| 7.01 | CN1Cc2c(Cl)cc(Cl)cc2[C@H](c2cccc(Nc3c(N(C)C)c(=O)c3=O)c2)C1 [Example 22, 6,8-dichloro-2-methyl-4(S)-[3N-(2-dimethylamino-3,4-dioxocyclobuten-1-yl)amino]phenyl-1,2,3,4-tetrahydroisoquinoline] |

test system: not given; assay: not given; details: not given

| melting point [°C] | SMILES |
| --- | --- |
| 260 to 265 | CN1Cc2c(Cl)cc(Cl)cc2C(c2ccc(Nc3c(N(C)C4CCCCC4)c(=O)c3=O)cc2)C1 (centres unmarked) [Example 17, 6,8-dichloro-2-methyl-4-[4N-(2-N-cyclohexyl-N-methylamino-3,4-dioxocyclobuten-1-yl)amino]phenyl-1,2,3,4-tetrahydroisoquinoline] |
| 240 to 247 | CN1Cc2c(Cl)cc(Cl)cc2[C@H](c2ccc(Nc3c(N(C)C)c(=O)c3=O)cc2)C1 [Example 20, 6,8-dichloro-2-methyl-4(S)-[4N-(2-dimethylamino-3,4-dioxocyclobuten-1-yl)amino]phenyl-1,2,3,4-tetrahydroisoquinoline] |
| 236 to 240 | CN1Cc2c(Cl)cc(Cl)cc2[C@H](c2ccccc2Nc2c(N(C)C)c(=O)c2=O)C1 [Example 21, 6,8-dichloro-2-methyl-4(R)-[2N-(2-dimethylamino-3,4-dioxocyclobuten-1-yl)amino]phenyl-1,2,3,4-tetrahydroisoquinoline] |
| 280 to 285 | CN1Cc2c(Cl)cc(Cl)cc2[C@H](c2ccc(Nc3c(NC4CC4)c(=O)c3=O)cc2)C1 [Example 35] |
| 288 to 294 | CN1Cc2c(Cl)cc(Cl)cc2C(c2ccc(Nc3c(Nc4ccccc4)c(=O)c3=O)cc2)C1 (centres unmarked) [Example 43, 6,8-dichloro-2-methyl-4-[4N-(2-N-phenylamino-3,4-dioxocyclobuten-1-yl)amino]phenyl-1,2,3,4-tetrahydroisoquinoline] |
| 224 to 230 | CNc1c(Nc2ccccc2C2CN(C)Cc3c(Cl)cc(Cl)cc32)c(=O)c1=O (centres unmarked) [Example 44, 6,8-dichloro-2-methyl-4-[2N-(2-N-methylamino-3,4-dioxocyclobuten-1-yl)amino]phenyl-1,2,3,4-tetrahydroisoquinoline] |
| 157 to 160 | CCCCCCNc1c(Nc2ccccc2C2CN(C)Cc3c(Cl)cc(Cl)cc32)c(=O)c1=O (centres unmarked) [Example 45, 6,8-dichloro-2-methyl-4-[2N-(2-N-(1-hexylamino)-3,4-dioxocyclobuten-1-yl)amino]phenyl-1,2,3,4-tetrahydroisoquinoline] |
| 238 to 241 | CC(C)Nc1c(Nc2ccccc2C2CN(C)Cc3c(Cl)cc(Cl)cc32)c(=O)c1=O (centres unmarked) [Example 46, 6,8-dichloro-2-methyl-4-[2N-(2-N-isopropylamino-3,4-dioxocyclobuten-1-yl)amino]phenyl-1,2,3,4-tetrahydroisoquinoline] |
| 278 to 281 | CN1Cc2c(Cl)cc(Cl)cc2C(c2ccccc2Nc2c(NC3CCCC3)c(=O)c2=O)C1 (centres unmarked) [Example 47, 6,8-dichloro-2-methyl-4-[2N-(2-N-cyclopentylamino-3,4-dioxocyclobuten-1-yl)amino]phenyl-1,2,3,4-tetrahydroisoquinoline] |
| 279 to 283 | CN1Cc2c(Cl)cc(Cl)cc2C(c2ccccc2Nc2c(NCc3ccco3)c(=O)c2=O)C1 (centres unmarked) [Example 48, 6,8-dichloro-2-methyl-4-[2N-(2N-(2-furylmethyl)amino-3,4-dioxocyclobuten-1-yl)amino]phenyl-1,2,3,4-tetrahydroisoquinoline] |
| 205 to 208 | CCNc1c(Nc2ccccc2C2CN(C)Cc3c(Cl)cc(Cl)cc32)c(=O)c1=O (centres unmarked) [Example 49, 6,8-dichloro-2-methyl-4-[2N-(2-N-ethylamino-3,4-dioxocyclobuten-1-yl)amino]phenyl-1,2,3,4-tetrahydroisoquinoline] |
| 208 to 211 | CN(C)CCNc1c(Nc2ccccc2C2CN(C)Cc3c(Cl)cc(Cl)cc32)c(=O)c1=O (centres unmarked) [Example 50, 6,8-dichloro-2-methyl-4-[2N-(2-N-dimethylaminoethylamino-3,4-dioxocyclobuten-1-yl)amino]phenyl-1,2,3,4-tetrahydroisoquinoline] |
| 292 to 297 | CCNc1c(Nc2ccc(C3CN(C)Cc4c(Cl)cc(Cl)cc43)cc2)c(=O)c1=O (centres unmarked) [Example 51, 6,8-dichloro-2-methyl-4-[4N-(2-N-ethylamino-3,4-dioxocyclobuten-1-yl)amino]phenyl-1,2,3,4-tetrahydroisoquinoline] |
| 244 to 246 | CN1Cc2c(Cl)cc(Cl)cc2C(c2ccccc2Nc2c(NCc3cccnc3)c(=O)c2=O)C1 (centres unmarked) [Example 52, 6,8-dichloro-2-methyl-4-[2N-(2N-(3-picolylmethyl)amino-3,4-dioxocyclobuten-1-yl)amino]phenyl-1,2,3,4-tetrahydroisoquinoline] |
| 328 to 334 | CNc1c(Nc2ccc(C3CN(C)Cc4c(Cl)cc(Cl)cc43)cc2)c(=O)c1=O (centres unmarked) [Example 53, 6,8-dichloro-2-methyl-4-[4N-(2N-methylamino-3,4-dioxocyclobuten-1-yl)amino]phenyl-1,2,3,4-tetrahydroisoquinoline] |
| 300 to 304 | CN1Cc2c(Cl)cc(Cl)cc2C(c2ccc(Nc3c(NC4CCCC4)c(=O)c3=O)cc2)C1 (centres unmarked) [Example 54] |
| 268 to 272 | CC(C)Nc1c(Nc2ccc(C3CN(C)Cc4c(Cl)cc(Cl)cc43)cc2)c(=O)c1=O (centres unmarked) [Example 55, 6,8-dichloro-2-methyl-4-[4N-(2N-isopropylamino-3,4-dioxocyclobuten-1-yl)amino]phenyl-1,2,3,4-tetrahydroisoquinoline] |
| 264 to 268 | CN1Cc2c(Cl)cc(Cl)cc2C(c2ccc(Nc3c(NCc4ccco4)c(=O)c3=O)cc2)C1 (centres unmarked) [Example 56, 6,8-dichloro-2-methyl-4-[4N-(2N-(2-furylmethyl)amino-3,4-dioxocyclobuten-1-yl)amino]phenyl-1,2,3,4-tetrahydroisoquinoline] |
| 262 to 266 | CN(C)CCNc1c(Nc2ccc(C3CN(C)Cc4c(Cl)cc(Cl)cc43)cc2)c(=O)c1=O (centres unmarked) [Example 57] |
| 234 to 238 | CCCCCCNc1c(Nc2ccc(C3CN(C)Cc4c(Cl)cc(Cl)cc43)cc2)c(=O)c1=O (centres unmarked) [Example 58] |
| 288 to 290 | CN1Cc2c(Cl)cc(Cl)cc2C(c2ccc(Nc3c(NCc4cccnc4)c(=O)c3=O)cc2)C1 (centres unmarked) [Example 59] |
| 295 to 298 | CNc1c(Nc2cccc(C3CN(C)Cc4c(Cl)cc(Cl)cc43)c2)c(=O)c1=O (centres unmarked) [Example 60] |
| 248 to 252 | CN1Cc2c(Cl)cc(Cl)cc2C(c2cccc(Nc3c(NC4CCCC4)c(=O)c3=O)c2)C1 (centres unmarked) [Example 63, 6,8-dichloro-2-methyl-4-[3N-(2-cyclopentylamino-3,4-dioxocyclobuten-1-yl)amino]phenyl-1,2,3,4-tetrahydroisoquinoline] |
| 240 to 244 | CC(C)Nc1c(Nc2cccc(C3CN(C)Cc4c(Cl)cc(Cl)cc43)c2)c(=O)c1=O (centres unmarked) [Example 64] |
| 198 to 200 | CN(C)CCNc1c(Nc2cccc(C3CN(C)Cc4c(Cl)cc(Cl)cc43)c2)c(=O)c1=O (centres unmarked) [Example 65] |
